{"source": "patent US20060173015A1", "about": "“Cyclohexyldiamines as selective alpha 1a/1d adrenoreceptor antagonists for the treatment of benign prostatic hypertrophy and lower urinary tract symptoms” (priority 2004, published 2006)", "key": {"MAP": {"tested_on": "MAP", "assay": "Phenylephrine-induced MAP in a conscious canine model", "type": "in vivo", "settings": "conscious dog", "method": "In-Vivo Evaluation of α1-Adrenergic Antagonists on IUP and MAP in a Conscious Canine Model\nAn anesthetized dog was fitted with a balloon catheter for the measurement of changes in prostatic IUP and with a number of implanted pressure transducers and telemetry transmitters for measuring MAP.\nThe pressor effects of challenge doses […] of the α-adrenergic agonist phenylephrine upon IUP and MAP were measured before and at various time points after a single dose (p.o.) of an α-adrenergic antagonist test compound (Compound 69) of the present invention.\nEach treatment group was dosed with a test compound (0.1, 0.3, 1.0 and 3.0 mg/kg) in four separate experiments. The first challenge dose of phenylephrine for each treatment group was administered at the time of the test compound dose (time 0). The value for the first challenge dose represents an average of up to three challenge doses administered prior to time 0.\nSubsequent challenge doses for all treatment groups were administered at 30 min. then one hour and two hours after time 0.\nThe final challenge doses for the 0.1 and 0.3 mg/kg groups were administered at four and six hours after time 0. The final challenge doses for the 1.0 mg/kg group were administered at four, six and eight hours after time 0. The final challenge doses for the 3.0 mg/kg group were administered at four, six, 12 and 24 hours after time 0.\nA pressure transducer and telemetry transmitter (DSI TA11PA-D70 35 cm, Data Sciences International, St. Paul, Minn.) were implanted according to directions in “PA Device Surgical Manual” provided by the manufacturer.\nA test compound was administered via the cephalic or saphenous vein using an appropriately sized IV catheter (Surflo, Terumo Medical Corporation or equivalent).\nPrior to test compound administration, IUP and MAP responses to an individualized dose of phenylephrine (either 10 or 15 μg/kg IV, depending on the individual animal's response) was repeated 2 to 3 times to establish a baseline response. After test compound administration, the individualized phenylephrine dose was administered to each animal at predetermined intervals over a period of up to 24 hours.\nData for phenylephrine-induced changes in IUP and MAP were tabulated for each treatment group and each experiment. A mean value and standard deviation for the phenylephrine-induced changes to the effect of a test compound on IUP and MAP at each dose was calculated and tabulated for each treatment group over the length of the study."}, "α1b-AR": {"molecular_target": "T1, α1b-AR (Homo sapiens, UniProt P35368)", "T1 sequence (P35368 1-520)": "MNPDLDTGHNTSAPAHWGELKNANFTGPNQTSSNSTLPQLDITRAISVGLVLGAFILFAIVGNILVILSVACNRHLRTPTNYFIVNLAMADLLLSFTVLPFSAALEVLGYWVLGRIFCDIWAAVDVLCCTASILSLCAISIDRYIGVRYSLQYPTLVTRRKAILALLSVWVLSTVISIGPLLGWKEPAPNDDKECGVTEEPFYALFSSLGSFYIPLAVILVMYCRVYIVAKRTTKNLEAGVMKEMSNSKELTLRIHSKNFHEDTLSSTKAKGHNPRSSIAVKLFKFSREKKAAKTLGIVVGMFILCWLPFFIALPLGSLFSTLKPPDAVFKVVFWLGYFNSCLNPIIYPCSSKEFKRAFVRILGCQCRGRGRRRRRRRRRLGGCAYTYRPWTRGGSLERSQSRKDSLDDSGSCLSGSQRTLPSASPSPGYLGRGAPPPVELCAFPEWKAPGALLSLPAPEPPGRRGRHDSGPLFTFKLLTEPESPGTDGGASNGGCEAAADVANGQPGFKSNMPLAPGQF", "assay": "α1-Adrenergic receptor radio-ligand (125I-HEAT) binding assay, α1b subtype", "settings": "Receptor Binding, Ki α1b-AR, COS-7 cell membranes, 125I-HEAT"}}, "data": [{"molecule": "COc1ccc(S(=O)(=O)N[C@H]2CC[C@@H](N3CCN(c4ccccc4OCC(F)(F)F)CC3)CC2)cc1OC", "note": "[Cpd 69, 3,4-Dimethoxy-N-cis-(4-{4-[2-(2,2,2-trifluoro-ethoxy)-phenyl]-piperazin-1-yl}-cyclohexyl)-benzenesulfonamide]", "values": [{"measurement": "MAP, normalized % of baseline (mean)", "setting": "MAP; 0.1 mg/kg p.o., 0 hrs (baseline)", "result": 100, "unit": "%"}, {"measurement": "MAP, normalized % of baseline (mean)", "setting": "MAP; 0.1 mg/kg p.o., 0.5 hrs after dose", "result": 87.7, "unit": "%"}, {"measurement": "MAP, normalized % of baseline (mean)", "setting": "MAP; 0.1 mg/kg p.o., 1 hrs after dose", "result": 93.3, "unit": "%"}, {"measurement": "MAP, normalized % of baseline (mean)", "setting": "MAP; 0.1 mg/kg p.o., 2 hrs after dose", "result": 80.1, "unit": "%"}, {"measurement": "MAP, normalized % of baseline (mean)", "setting": "MAP; 0.1 mg/kg p.o., 4 hrs after dose", "result": 89.7, "unit": "%"}, {"measurement": "MAP, normalized % of baseline (mean)", "setting": "MAP; 0.1 mg/kg p.o., 6 hrs after dose", "result": 91.0, "unit": "%"}, {"measurement": "MAP, normalized % of baseline (mean)", "setting": "MAP; 0.3 mg/kg p.o., 0 hrs (baseline)", "result": 100, "unit": "%"}, {"measurement": "MAP, normalized % of baseline (mean)", "setting": "MAP; 0.3 mg/kg p.o., 0.5 hrs after dose", "result": 64.9, "unit": "%"}, {"measurement": "MAP, normalized % of baseline (mean)", "setting": "MAP; 0.3 mg/kg p.o., 1 hrs after dose", "result": 59.3, "unit": "%"}, {"measurement": "MAP, normalized % of baseline (mean)", "setting": "MAP; 0.3 mg/kg p.o., 2 hrs after dose", "result": 67.7, "unit": "%"}, {"measurement": "MAP, normalized % of baseline (mean)", "setting": "MAP; 0.3 mg/kg p.o., 4 hrs after dose", "result": 85.6, "unit": "%"}, {"measurement": "MAP, normalized % of baseline (mean)", "setting": "MAP; 0.3 mg/kg p.o., 6 hrs after dose", "result": 103.9, "unit": "%"}, {"measurement": "MAP, normalized % of baseline (mean)", "setting": "MAP; 1.0 mg/kg p.o., 0 hrs (baseline)", "result": 100, "unit": "%"}, {"measurement": "MAP, normalized % of baseline (mean)", "setting": "MAP; 1.0 mg/kg p.o., 0.5 hrs after dose", "result": 47.3, "unit": "%"}, {"measurement": "MAP, normalized % of baseline (mean)", "setting": "MAP; 1.0 mg/kg p.o., 1 hrs after dose", "result": 37.2, "unit": "%"}, {"measurement": "MAP, normalized % of baseline (mean)", "setting": "MAP; 1.0 mg/kg p.o., 2 hrs after dose", "result": 52.8, "unit": "%"}, {"measurement": "MAP, normalized % of baseline (mean)", "setting": "MAP; 1.0 mg/kg p.o., 4 hrs after dose", "result": 61.3, "unit": "%"}, {"measurement": "MAP, normalized % of baseline (mean)", "setting": "MAP; 1.0 mg/kg p.o., 6 hrs after dose", "result": 76.6, "unit": "%"}, {"measurement": "MAP, normalized % of baseline (mean)", "setting": "MAP; 1.0 mg/kg p.o., 8 hrs after dose", "result": 87.8, "unit": "%"}, {"measurement": "MAP, normalized % of baseline (mean)", "setting": "MAP; 3.0 mg/kg p.o., 0 hrs (baseline)", "result": 100, "unit": "%"}, {"measurement": "MAP, normalized % of baseline (mean)", "setting": "MAP; 3.0 mg/kg p.o., 0.5 hrs after dose", "result": 43.4, "unit": "%"}, {"measurement": "MAP, normalized % of baseline (mean)", "setting": "MAP; 3.0 mg/kg p.o., 1 hrs after dose", "result": 19.7, "unit": "%"}, {"measurement": "MAP, normalized % of baseline (mean)", "setting": "MAP; 3.0 mg/kg p.o., 2 hrs after dose", "result": 21.7, "unit": "%"}, {"measurement": "MAP, normalized % of baseline (mean)", "setting": "MAP; 3.0 mg/kg p.o., 4 hrs after dose", "result": 39.8, "unit": "%"}, {"measurement": "MAP, normalized % of baseline (mean)", "setting": "MAP; 3.0 mg/kg p.o., 6 hrs after dose", "result": 50.2, "unit": "%"}, {"measurement": "MAP, normalized % of baseline (mean)", "setting": "MAP; 3.0 mg/kg p.o., 12 hrs after dose", "result": 80.2, "unit": "%"}, {"measurement": "MAP, normalized % of baseline (mean)", "setting": "MAP; 3.0 mg/kg p.o., 24 hrs after dose", "result": 95.1, "unit": "%"}, {"measurement": "Ki", "setting": "α1b-AR", "result": 100, "unit": "nM"}]}]}
